Legend:
[1] = Survey of relative performance of fluorescent derivatizing agents against a cooling water background; assay type: physicochemical; settings: for Fluorescent Maximum, emission (em) / Fluorescent Maximum, excitation (ex): 0.4 ppm (acid actives) aqueous solution; for Relative Intensity Value, Composition: 0.4 ppm (acid actives), 1,5-naphthalene disulfonic acid standard = 100%, at own fluorescence maximum; for Relative Performance: composition relative intensity / cooling water background relative intensity
Text: In preferred embodiment the derivatizing agents are selected from those that a reasonably high "relative performance" for a given background. As noted above, a molecule is generally considered highly fluorescent when it has a fluorescent quantum efficiency, or fluorescent quantum yield, within the range of from about 0.1 to about 1.0, and a light absorbance molar extinction coefficient of at least 1,000. The magnitude of fluorescent signal, or relative fluorescence, is the product of the fluorescent quantum yield multiplied times the light absorbance molar extinction coefficient. […] The "relative performance", as this phrase is used herein, is the ratio of the relative fluorescence of a composition to the relative fluorescence of a given background medium. The fluorescence readings are typically measured at the excitation/emission wavelengths that represent major peaks for the given fluorescent tagged polymer. […] Some generalities may be considered. Industrial cooling waters generally have an overall higher fluorescent intensity than industrial boiler waters, and therefore a degree of polymer tagging that is reasonably high for use in boiler waters may not be sufficiently high for cooling waters, since of course the intensity of fluorescence must not be overwhelmed by the background fluorescence and the intensity of fluorescence is dependent on the concentration level of the fluorescent species. Similarly, a polymer that is to be used at high concentration levels in a given background medium need not be tagged to the same extent as one that is to be used at much lower concentration levels, other parameters being the same.
Thus in Example 38 below a survey of relative performance values of a number of fluorescent derivatizing agents against a cooling water background is given as representative of the use of such screening method for any other group of derivatizing agents and any other type of background.
The relative performances of a variety of fluorescent derivatizing agents were surveyed against a cooling water background as follows. An aqueous solution of each agent at a concentration level of 0.4 ppm (acid actives) and the fluorescent intensity of each agent at its fluorescence maximum was determined, in comparison to a fluorescence reference standard. The standard used was 1,5-naphthalene disulfonic acid, which is not a derivatizing agent for the purposes of the present invention because it has no amine functionality. This standard was also measured at its fluorescence maximum in an aqueous solution at a concentration of 0.4 ppm (acid actives) and its intensity was assigned a "relative intensity value" of 100%. The "relative intensity values" of each of the other compositions tested were assigned in relationship to the intensity of the standard. For instance, a composition that had twice the intensity of the standard (the standard and the composition each being measured at their own fluorescence maximums) would be given a relative intensity value of 200%. Then the relative intensity values of the various compositions were compared to that of the cooling water background at the fluorescent maximum (peak excitation/emission wavelengths) of the composition. The cooling water fluorescent intensity employed was the average relative intensity of ten representative cooling water formulations measured for combination of wavelengths of excitation and emission within the range required for this survey. The relative performance for each composition thus is the value determined by dividing the relative intensity value determined for the fluorescence of each composition by the relative intensity value of the background fluorescence of cooling water at the same combination of wavelengths. The identities of the various compositions surveyed and the values determined are set forth below in Table VII.

[2] = system: rats; settings: cited from earlier work

Compound	Fluorescent Maximum, emission (em) [1]	Fluorescent Maximum, excitation (ex) [1]	Relative Intensity Value, Composition [1]	Relative Performance [1]	Detectable fluorescence in the survey (in words) ([1]; Table VII survey, 0.4 ppm)	Reported LD50 (oral/rats) [2]
1-amino-3,6-naphthalene trisulfonic acid	500 nm	360 nm	4%	0	–	–
O=S(=O)(O)c1cccc2c(S(=O)(=O)O)cccc12 [1,5-naphthalene disulfonic acid]	330 nm	290 nm	100%	14	–	–
Nc1cc(S(=O)(=O)O)cc2cccc(S(=O)(=O)O)c12 [1-amino-3,8-naphthalene disulfonic acid]	480 nm	245 nm	540%	25	–	–
Nc1ccc(S(=O)(=O)O)c2cccc(S(=O)(=O)O)c12 [1-amino-4,8-naphthalene disulfonic acid]	500 nm	255 nm	122%	5	–	–
Nc1ccc(S(=O)(=O)O)c2ccccc12 [1-amino-4-naphthalene sulfonic acid]	420 nm	325 nm	444%	24	–	–
Nc1cccc2c(S(=O)(=O)O)cccc12 [1-amino-5-naphthalene sulfonic acid]	480 nm	240 nm	14%	0	–	–
Nc1cccc2cc(S(=O)(=O)O)ccc12 [1-amino-6-naphthalene sulfonic acid]	485 nm	245 nm	74%	3	–	–
Nc1cccc2ccc(S(=O)(=O)O)cc12 [1-amino-7-naphthalene sulfonic acid]	480 nm	340 nm	80%	7	–	–
Nc1cccc2cccc(S(=O)(=O)O)c12 [1-amino-8-naphthalene sulfonic acid]	–	–	0%	0	did not provide detectable fluorescence	–
Nc1ccc2c(S(=O)(=O)O)cccc2c1S(=O)(=O)O [2-amino-1,5-naphthalene disulfonic acid]	420 nm	250 nm	486%	49	–	–
Nc1ccc2ccccc2c1S(=O)(=O)O [2-amino-1-naphthalene sulfonic acid]	485 nm	245 nm	150%	7	–	–
Nc1cc2ccc(S(=O)(=O)O)cc2cc1S(=O)(=O)O [2-amino-3,6-naphthalene disulfonic acid]	440 nm	250 nm	77%	8	–	–
Nc1cc(S(=O)(=O)O)c2cccc(S(=O)(=O)O)c2c1 [2-amino-4,8-naphthalene disulfonic acid]	440 nm	245 nm	–	–	–	–
Nc1ccc2c(S(=O)(=O)O)cc(S(=O)(=O)O)cc2c1 [2-amino-5,7-naphthalene disulfonic acid]	460 nm	250 nm	776%	97	–	2.0 grams/kilogram
Cc1ccc(N)c(S(=O)(=O)O)c1 [2-amino-5-methylbenzene sulfonic acid]	370 nm	240 nm	19%	3	–	–
Nc1ccc2c(S(=O)(=O)O)cccc2c1 [2-amino-5-naphthalene sulfonic acid]	440 nm	245 nm	750%	82	–	–
Nc1ccc2cc(S(=O)(=O)O)cc(S(=O)(=O)O)c2c1 [2-amino-6,8-naphthalene disulfonic acid]	445 nm	250 nm	69%	7	–	> 5.0 grams/kilogram
Nc1ccc2cc(S(=O)(=O)O)ccc2c1 [2-amino-6-naphthalene sulfonic acid]	420 nm	245 nm	760%	78	–	> 5.0 grams/kilogram
Nc1ccc2ccc(S(=O)(=O)O)cc2c1 [2-amino-7-naphthalene sulfonic acid]	440 nm	245 nm	446%	48	–	–
Nc1ccc2cccc(S(=O)(=O)O)c2c1 [2-amino-8-naphthalene sulfonic acid]	440 nm	240 nm	638%	75	–	–
Nc1ccccc1C(=O)O [2-amino-benzoic acid]	400 nm	240 nm	110%	13	–	–
Nc1cccc(C(=O)O)c1 [3-amino-benzoic acid]	370 nm	240 nm	21%	3	–	–
Nc1ccc(S(=O)(=O)O)cc1 [4-amino-benzene sulfonic acid]	340 nm	250 nm	26%	8	–	–
Nc1ccc(C(=O)O)cc1 [4-amino-benzoic acid]	340 nm	270 nm	82%	13	–	–
Nc1cc(S(=O)(=O)O)ccc1S(=O)(=O)O [amino-2,5-benzene disulfonic acid]	380 nm	310 nm	54%	4	–	–
Nc1ccccc1 [aniline]	340 nm	230 nm	4%	1	–	0.25 grams/kilogram
